Data set [1] deals with ST738 tumors. In words: TNBC PDX tumor model. The note with it: Eribulin mesylate 1 mg/kg once a week for two weeks. Type of data set: in vivo, Balb/c nu/nu mice. The method, then:
(§1) Female Balb/c nu/nu mice were fed ad libitum with folate-deficient chow (Harlan diet #TD01013) for the duration of the experiment. Primary human Endometrial model ST040, TNBC models 5T502 and ST738 and Ovarian model ST024 fragments (2-4 mm in diameter) were inoculated subcutaneously at the right flank of each mouse. Mice were randomized into 6 experimental groups of 5 or 3 mice each and test articles were injected through the lateral tail vein under sterile conditions in a volume of 200 μL of phosphate-buffered saline (PBS).
(§2) Growth of each s.c. tumor was followed by measuring the tumor two times per week until a volume of 1200 mm^3 was reached. Tumors were measured in two perpendicular directions using Vernier calipers, and their volumes were calculated as 0.5×L×W^2, where L=measurement of longest axis in mm and W=measurement of axis perpendicular to L in mm.

The test system of data set [2] is ST502 tumors. In words: TNBC PDX tumor model. Type of data set: in vivo, Balb/c nu/nu mice. To be noted: Eribulin mesylate 1 mg/kg once a week for two weeks. As to the method: as §1, §2
Data set [3] has as its system ST024 tumors. In words: Ovarian PDX tumor model. To be noted: Paclitaxel 15 mg/kg once a week for two weeks. Type of data set: in vivo, Balb/c nu/nu mice. As to the method:
as §1, §2

Data set [4] concerns ST040 tumors. In words: Endometrial PDX tumor model. The class given is in vivo, Balb/c nu/nu mice. To be noted: Paclitaxel 15 mg/kg once a week for two weeks. The method, then:
as §1, §2

Data set [5] concerns KB tumors. In words: Inhibition of tumor growth, s.c. KB tumors. The class given is in vivo, nu/nu mice. The note with it: for CR (%) / Cures (%) / PR (%): TIW, 2 weeks. The method, then: METHOD. Inhibition of Tumor Growth in Mice. Four to seven week-old mice (Balb/c or nu/nu strains) were purchased from Harlan Sprague Dawley, Inc. (Indianapolis, Ind.). Normal rodent chow contains a high concentration of folic acid (6 mg/kg chow); accordingly, test animals were maintained on a folate-free diet (Harlan diet #TD00434) for about 1 week before tumor implantation to achieve serum folate concentrations close to the range of normal human serum, and during the Method. For tumor cell inoculation, 1×10^6 M109 cells (a syngeneic lung carcinoma) in Balb/c strain, or 1×10^6 KB cells in nu/nu strain, in 100 μL were injected in the subcutis of the dorsal medial area (right axilla). Tumors were measured in two perpendicular directions every 2-3 days using a caliper, and their volumes were calculated as 0.5×L×W^2, where L=measurement of longest axis in mm and W=measurement of axis perpendicular to L in mm.
Dosing solutions were prepared fresh each day in PBS and administered through the lateral tail vein of the mice.
Tumor implantation. KB tumor cells were grown in folate-deficient RPMI 1640 with 5% FBS at 37° C. in a 5% CO2 humidified atmosphere. KB (1×10^6 cells per animal) tumor cells were inoculated subcutaneously […] post start of the folate deficient diet. Mice were dosed after the tumors reached between 100-150 mm3.
Preparation of dosing drug solutions. Dosing solutions were prepared when dosing began by weighing appropriate amounts of each compound, reconstituting in PBS, pH 7.4, sterile filtering the drug solution through a 0.22 µm PVDF syringe filter, and freezing aliquots for each day of dosing at −20° C.
(§3) Evaluation. Tumor size was monitored and body weight measured 3 times/week. Attention was given to gross animal morphology and behavior. Euthanasia was performed if the mice lost >20% of weight or when the tumors reached a size of 1500 mm3. Euthanasia was also performed at the researcher's discretion if mice lost a lot of weight in a short duration or when mice were approaching moribund conditions. Blood samples were collected by cardiac puncture from all viable animals from selected cohorts. Heart, lungs, liver, spleen, kidney, intestines, bone, brain and muscle were obtained immediately after euthanasia. The tissues were removed and stored in 10% neutral-buffered formalin.
For example, a 50% decrease in tumor volume from the initial measurement represents a partial response.
For example, a decrease in tumor volume where the measurements in two perpendicular directions are each about 2 mm or less represents a complete response.

Data set [6] in a line: Cytotoxicity of unconjugated drugs to cells in culture. Type of data set: cell-based. The note with it: cells in culture; unconjugated drug; read-out: typical IC50, cytotoxic to cells in culture.
The nature of data set [7]: Toxicity as measured by weight loss / gross animal toxicity in tumor-bearing mice. The note with it: for Toxicity Avg. Weight Loss / Toxicity Deaths (%): TIW, 2 weeks. As to the method: METHOD. Toxicity as Measured by Weight Loss. The percentage weight change of the test animals was determined on selected days post-tumor inoculation (PTI), and during dosing. The results were graphed.
as §3

The subject of data set [8] is cells in culture. In words: Cytotoxicity of unconjugated drugs to cells in culture. The note with it: unconjugated drug; read-out: typical IC50, cytotoxic to cells in culture. Type of data set: cell-based.
Data set [9] deals with KB-CR2000 (cisplatin resistant) tumors. In words: Cisplatin-resistant KB-CR2000 tumor model. Type of data set: in vivo, mice. To be noted: cisplatin 3 mg/kg twice per week, 2 weeks. The source says:
METHOD. Human cisplatin-resistant cell line. […] In addition, regrowth of the tumor was only observed in 1/5 test animals.

The subject of data set [10] is LU1147 NSCLC tumors. In words: Huprime NSCLC PDX tumor model. Type of data set: in vivo, Balb/c nu/nu mice. To be noted: Docetaxel 15 mg/kg (one dose). The method, then: (§4) Female Balb/c nu/nu mice were fed ad libitum with folate-deficient chow (Harlan diet #TD01013) for the duration of the experiment. Primary human NSCLC models LU1147 or LU2505 fragments (2-4 mm in diameter) were inoculated subcutaneously at the right flank of each mouse. Mice were randomized into experimental groups of 7 mice and test articles were injected through the lateral tail vein under sterile conditions in a volume of 200 μL of phosphate-buffered saline (PBS). These studies were performed at Crown Bioscience (Beijing) Inc., Ground Floor, Light Muller Building, Changping Sector of Zhongguancun Scientific Park, No. 21 Huoju Road, Changping District, Beijing, P.R. China.
as §2

Data set [11] deals with LU2505 NSCLC tumors. In words: Huprime NSCLC PDX tumor model. Type of data set: in vivo, Balb/c nu/nu mice. The note with it: Docetaxel 15 mg/kg (one dose). As to the method:
as §4, §2

[12] abbreviates: 1.0 μmol/kg (2 doses, only 2 doses due to toxicity).
Where [13] appears, read: KB tumors, 1.0 μmol/kg (2 doses).
Where [14] appears, read: KB tumors, 0.1 μmol/kg (4 doses).
[15] abbreviates: KB tumors, 0.2 μmol/kg (3 doses).
Setting [16] is: KB tumors, 0.5 μmol/kg (1 dose).
[17] abbreviates: Carboplatin 30 mg/kg BIW×2 combined with paclitaxel 10 mg/kg BIW×2.

Molecules are shown by their SMILES. Structures can show the parent of a compound that is named as a salt.

Turning to `C=C1C[C@@H]2CC[C@@]34C[C@H]5O[C@H]6[C@@H](O3)[C@H]3O[C@H](CC[C@@H]3O[C@H]6[C@H]5O4)CC(=O)C[C@@H]3[C@@H](OC)[C@@H](C[C@H](O)CN)O[C@H]3C[C@H]3O[C@@H](CC[C@@H]1O2)C[C@@H](C)C3=C` [Eribulin mesylate, eribulin mesylate, reference compound], in data set [1], the “PR's” value is on record as 2 and the “animals exhibiting stable disease” value was found to be 5 animals. Further, in data set [2], the “animal exhibiting PR” value worked out at 1 animal and the “animal exhibiting stable disease” value was 1 animal.
Consider `CC(=O)O[C@H]1C(=O)[C@@]2(C)[C@H]([C@H](OC(=O)c3ccccc3)[C@]3(O)C[C@H](OC(=O)[C@H](O)[C@@H](NC(=O)c4ccccc4)c4ccccc4)C(C)=C1C3(C)C)[C@]1(OC(C)=O)CO[C@@H]1C[C@@H]2O` [Paclitaxel, paclitaxel, reference compound], for which the anti-tumor activity entry in [3] was “no anti-tumor activity”. Moreover, the “animals exhibiting stable disease” value in [4] is on record as “zero”.
Usually IC50 stands for the concentration needed to halve the response being measured. Consider `CCCC(=O)OCN(C(=O)[C@@H](NC(=O)[C@H]1CCCCN1C)C(C)CC)[C@H](C[C@@H](OC(C)=O)c1nc(C(=O)N[C@@H](Cc2ccc(O)cc2)C[C@H](C)C(=O)NN)cs1)C(C)C` (stereo partly shown) [TubB-H, reference compound], for which the “CR (%)” value in data set [5] (0.5 μmol/kg), in data set [5] (0.75 μmol/kg) and in data set [5] (setting [12]) was 0% throughout. Further, the “Cures (%)” value in data set [5] (0.5 μmol/kg), in data set [5] (0.75 μmol/kg) and in data set [5] (setting [12]) was 0% each time. The “PR (%)” value in [5] (0.5 μmol/kg), in [5] (0.75 μmol/kg) and in data set [5] (setting [12]) was 0% in each case. In addition, the IC50 in data set [6] is around 1 nM. Further, the “Toxicity Avg. Weight Loss” value in data set [7] (KB tumors, 0.5 μmol/kg) is recorded as below 5.5%; in [7] (KB tumors, 0.75 μmol/kg), above 10%; in [7] (setting [13]), above 15%. Besides, the “Toxicity Deaths (%)” value in [7] (KB tumors, 0.5 μmol/kg) was found to be 0%; in data set [7] (KB tumors, 0.75 μmol/kg), 20%; in [7] (setting [13]), 20%.
Consider `CCCC(=O)OCN(C(=O)[C@@H](NC(=O)[C@H]1CCCCN1C)[C@@H](C)CC)[C@H](C[C@@H](OC(C)=O)c1nc(C(=O)N[C@@H](Cc2ccc(O)cc2)C[C@H](C)C(=O)O)cs1)C(C)C` [Tubulysin B, tubulysin B, reference compound], for which the “CR (%)” value in data set [5] (0.1 μmol/kg (4 doses)), in data set [5] (0.2 μmol/kg (3 doses)) and in data set [5] (0.5 μmol/kg (1 dose)) was 0% each time. The “Cures (%)” value in data set [5] (0.1 μmol/kg (4 doses)), in data set [5] (0.2 μmol/kg (3 doses)) and in data set [5] (0.5 μmol/kg (1 dose)) was 0% in each case. In addition, the “PR (%)” value in data set [5] (0.1 μmol/kg (4 doses)), in [5] (0.2 μmol/kg (3 doses)) and in [5] (0.5 μmol/kg (1 dose)) was 0% in each case. Besides, in data set [8], the IC50 is around 1 nM. The “Toxicity Avg. Weight Loss” value is listed as above 20% in [7] (setting [14]), above 18% in data set [7] (setting [15]) and above 15% in data set [7] (setting [16]). Moreover, the “Toxicity Deaths (%)” value in data set [7] (setting [14]), in data set [7] (setting [15]) and in data set [7] (setting [16]) was 100% throughout.
Regarding `N.N.O=C([O-])C1(C(=O)[O-])CCC1.[Pt+2]` [carboplatin, reference compound], in [5] (setting [17]), the “CR's” value was 80% and the cures is recorded as 20%. Besides, the toxicity entry in [7] (KB tumors, carboplatin/paclitaxel study, carboplatin administered alone) is on record as “Mild toxicity”. The toxicity entry in data set [7] (P-1635 KB tumors, carboplatin alone 50 mg/kg TIW) is “Mild toxicity”.
In the case of `N.N.[Cl][Pt][Cl]` [cisplatin, reference compound], in data set [9], the “partial response (PR)” value is on record as “did not produce even a single partial response”.
On to `CC(=O)O[C@@]12CO[C@@H]1C[C@H](O)[C@@]1(C)C(=O)[C@H](O)C3=C(C)[C@@H](OC(=O)[C@H](O)[C@@H](NC(=O)OC(C)(C)C)c4ccccc4)C[C@@](O)([C@@H](OC(=O)c4ccccc4)[C@H]21)C3(C)C` [docetaxel], for which the “animals exhibiting stable disease” value in data set [10] amounted to 2 animals. For the same molecule, in [11], the “CR's” value amounted to 2, the “PR's” value amounted to 2 and the cures was found to be 2. For the same molecule, in [7] (KB tumors, docetaxel alone 7 mg/kg BIW×3), the toxicity result is listed as “Mild toxicity”.
As for `COc1cccc2c1C(=O)c1c(O)c3c(c(O)c1C2=O)C[C@@](O)(C(=O)CO)C[C@@H]3O[C@H]1C[C@H](N)[C@H](O)[C@H](C)O1` [doxorubicin, reference compound], the toxicity entry in [7] (KB-DR150 tumors, doxorubicin alone, DOXIL 5 mg/kg BIW×2) was “Mild toxicity”.

Values taken from patent US20170035894A1, “DRUG DELIVERY CONJUGATES FOR TREATING RESISTANT CANCER AND FOR USE IN COMBINATION THERAPY” (ENDOCYTE, INC., priority 2014, published 2017).
